Tested on: Common fruit fly, Drosophila melanogaster
Experiment: Diet surface treatment bioassay against common fruit fly, population after one generation
Assay type: in vivo
Settings: single peptide 0.1 mg/ml; after 14 days (one generation)
Experimental: A trap made up from a ripened banana was kept in an open, shady, and damp place to capture the flies. Captured flies were anaesthetized using about 5% Triethylamine (TAE) treatment for about 1 minute. Drosophila melanogaster files were identified, separated, and transferred to a flask containing diet made up of Corn flour: about […], Sugar: about 51 μm, Agar agar: about […], Yeast: about 17 μm, Methyl Paraben: about 4 μm, Propionic acid: about 4 ml, Distilled Water: about 1200 ml. Freshly emerged flies were transferred to separate bottle to synchronize the population. The population was maintained in a separate room at a temperature of about 25±2° C., RH of about 60-65% and was subjected to a 16:8 (light: dark) h photoperiod.
The insecticide stock solutions were prepared by dilution with phosphate buffered saline (PBS, pH 7.0) to achieve desire doses of test. Semi synthetic artificial diet surface treatment method was used to assess the efficacy of IPPs against […]. Diet was prepared as per the composition given above. 2 ml hot liquid diet poured in 25 ml glass vials (5 cm h and 1.5 cm diameter) and allowed to cool and solid. […] After 14 days precisely after one generation, insect stages, egg, larvae, pupa and adults were counted.

Structure (SMILES): CC[C@H](C)[C@H](NC(=O)[C@H](CCC(N)=O)NC(=O)[C@H](CCC(N)=O)NC(=O)[C@H](CCC(=O)O)NC(=O)[C@H](CCCCN)NC(=O)[C@H](CCC(N)=O)NC(=O)[C@H](CCC(=O)O)NC(=O)[C@H](C)NC(=O)[C@@H](N)CCSC)C(=O)N[C@@H](CC(C)C)C(=O)N[C@@H](CCCNC(=N)N)C(=O)N[C@@H](CC(C)C)C(=O)N[C@@H](CCCNC(=N)N)C(=O)N[C@@H](CCC(=O)O)C(=O)N[C@@H](CO)C(=O)N[C@@H](Cc1c[nH]cn1)C(=O)N[C@@H](Cc1c[nH]cn1)C(=O)N[C@@H](Cc1c[nH]cn1)C(=O)N[C@@H](Cc1c[nH]cn1)C(=O)N[C@@H](Cc1c[nH]cn1)C(=O)N[C@@H](Cc1c[nH]cn1)C(=O)O [Seq. ID No. 3, MAEQKEQQILRLRES]
- Observed Response (Percent reduction of population over UTC) SEQ ID No. X / SEQ ID No. Y: 37.79%

Source: patent US20260209275A1, “PEPTIDE(S), COMPOSITION(S) AND METHOD(S) HAVING BROAD SPECTRUM ACTIVITY AGAINST CROP INSECTS” (TELLURIS BIOTECH INDIA PRIVATE LIMITED, priority 2022, published 2026)
